In assay [1] the target is Sodium-dependent serotonin transporter (Rattus norvegicus, UniProt P31652). Put plainly: Displacement of [3H]-Citalopram from SERT in rat cerebral cortex homogenates after 1 hr by liquid scintillation counter. It is filed as tissue-based. On the technique in general: Displacement assays read how much labelled ligand stays bound in the presence of the test substance.
Assay [2] concerns the target Sodium-dependent serotonin transporter (Homo sapiens, UniProt P31645). As to the kind of experiment: Displacement of [3H]-5HT from human SERT.

This is an account of results in ChEMBL document CHEMBL1944535, “Synthesis, in vitro binding studies and docking of long-chain arylpiperazine nitroquipazine analogues, as potential serotonin transporter inhibitors” (Eur J Med Chem, 2012).

Sodium-dependent serotonin transporter (Rattus norvegicus, UniProt P31652), sequence (P31652 whole entry): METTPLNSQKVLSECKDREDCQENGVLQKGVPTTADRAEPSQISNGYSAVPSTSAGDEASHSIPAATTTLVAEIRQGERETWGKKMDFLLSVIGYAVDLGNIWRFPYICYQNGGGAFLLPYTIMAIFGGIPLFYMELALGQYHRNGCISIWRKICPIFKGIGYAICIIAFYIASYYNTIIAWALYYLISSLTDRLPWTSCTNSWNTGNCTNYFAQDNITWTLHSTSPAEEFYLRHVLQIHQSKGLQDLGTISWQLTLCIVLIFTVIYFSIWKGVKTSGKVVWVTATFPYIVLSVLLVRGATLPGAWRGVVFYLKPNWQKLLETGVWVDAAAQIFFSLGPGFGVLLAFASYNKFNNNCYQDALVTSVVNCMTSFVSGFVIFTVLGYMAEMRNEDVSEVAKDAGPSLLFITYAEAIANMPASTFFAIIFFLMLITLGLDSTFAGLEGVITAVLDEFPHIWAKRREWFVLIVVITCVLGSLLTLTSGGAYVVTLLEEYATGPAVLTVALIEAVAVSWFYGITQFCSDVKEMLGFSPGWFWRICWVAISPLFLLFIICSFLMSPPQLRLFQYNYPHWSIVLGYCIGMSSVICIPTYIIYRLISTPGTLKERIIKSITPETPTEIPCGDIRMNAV
Sodium-dependent serotonin transporter (Homo sapiens, UniProt P31645), sequence (P31645 whole entry): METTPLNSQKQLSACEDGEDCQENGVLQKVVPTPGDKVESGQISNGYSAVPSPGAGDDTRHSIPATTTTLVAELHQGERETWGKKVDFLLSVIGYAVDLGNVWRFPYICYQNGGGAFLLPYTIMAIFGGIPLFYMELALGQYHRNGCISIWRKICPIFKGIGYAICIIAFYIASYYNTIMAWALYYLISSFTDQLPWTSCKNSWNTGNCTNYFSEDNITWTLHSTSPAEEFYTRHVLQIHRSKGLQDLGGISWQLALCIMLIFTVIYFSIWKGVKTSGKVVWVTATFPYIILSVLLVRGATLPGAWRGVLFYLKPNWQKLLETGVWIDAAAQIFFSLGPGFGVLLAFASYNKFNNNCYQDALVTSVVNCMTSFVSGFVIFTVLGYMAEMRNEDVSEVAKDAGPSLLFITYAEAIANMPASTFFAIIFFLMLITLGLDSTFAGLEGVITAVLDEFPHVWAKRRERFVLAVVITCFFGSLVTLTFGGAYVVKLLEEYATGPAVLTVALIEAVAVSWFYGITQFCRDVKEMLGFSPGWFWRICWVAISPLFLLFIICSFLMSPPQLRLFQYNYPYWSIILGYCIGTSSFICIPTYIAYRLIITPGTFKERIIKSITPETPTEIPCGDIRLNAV

On to `CC1CN(c2ccc3cc([N+](=O)[O-])ccc3n2)CCN1CCCCN1C(=O)CC(C)(C)CC1=O` (stereo unspecified), for which, in assay [1], the IC50 stood at 0.807 µM.
Same read-out and setting: next, `O=C1c2ccccc2C(=O)N1CCCCN1CCN(c2ccc3cc([N+](=O)[O-])ccc3n2)CC1`: 4.13 µM; `O=C1CC2(CCCC2)CC(=O)N1CCCCN1CCN(c2ccc3cc([N+](=O)[O-])ccc3n2)CC1`: 25.9 µM.
In the case of `CC1CN(c2ccc3ccccc3n2)CCN1CCCCN1C(=O)CC(C)(C)CC1=O` (stereo unspecified), the IC50 in assay [1] worked out at 0.171 µM. Against the preceding compound, the IC50 is about 150-fold lower.
Still for that read-out and setting: the figure for `CC1(C)CC(=O)N(CCCCN2CCN(c3ccc4c(Cl)cccc4n3)CC2)C(=O)C1` is 2.8 µM.
`O=C1CCCC(=O)N1CCCCN1CCN(c2ccc3cc([N+](=O)[O-])ccc3n2)CC1` displayed an IC50 in assay [1] of 0.921 µM.
On to `O=[N+]([O-])c1ccc2nc(N3CCNCC3)ccc2c1` [6-NITROQUIPAZINE], for which affinity in assay [2] was put at a Ki of 0.00017 µM.
In assay [1], `CC1CN(c2ccc3cc([N+](=O)[O-])ccc3n2)CCN1CCCCN1C(=O)CC2(CCCC2)CC1=O` (stereo unspecified) showed an IC50 of 1.35 µM.
Regarding `CC1(C)CC(=O)N(CCCCN2CCN(c3ccc4cc([N+](=O)[O-])ccc4n3)CC2)C(=O)C1`, in assay [1], the IC50 is 0.616 µM.
Still for that read-out and setting: next, `CC1CN(c2ccc3cc([N+](=O)[O-])ccc3n2)CCN1CCCCN1C(=O)CCCC1=O` (stereo unspecified): 0.268 µM.
Take `CC(=O)Nc1ccc2nc(N3CCN(CCCCN4C(=O)CC5(CCCC5)CC4=O)CC3)ccc2c1`: the IC50 in assay [1] amounted to 18.8 µM.

A word on the IC50: it is the concentration that inhibits the measured activity by half. A higher IC50 goes with a need for much substance. As usually defined, the Ki is a measure of affinity in units of concentration, obtained from inhibition or displacement. A higher Ki goes with weaker binding.
